Columns and labels:
FGFR3 (V555M) = target: T1, FGFR3 (V555M) (Homo sapiens, UniProt P22607, V555M); experiment: Kinase binding assay (kinase-tagged T7 phage, affinity beads, qPCR readout), FGFR3 (V555M); settings: FGFR binding data
T1 construct: made in house; host or cells: E. coli derived from BL21, infected with T7 phage
Outline: (§1)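 Competition binding: kinases displaced from biotinylated-ligand streptavidin beads by test compound in binding buffer (20% SeaBlock, 0.17×PBS, 0.05% Tween 20, 6 mM DTT), 1 hour at room temperature, 0.9% DMSO. Bead-bound kinase eluted with 0.5 μM free ligand, quantified by qPCR. Kd from 11-point 3-fold dilutions, Hill slope fixed at −1.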

FGFR2 = target: T2, FGFR2 (Homo sapiens, UniProt P21802); experiment: Kinase binding assay (kinase-tagged T7 phage, affinity beads, qPCR readout), FGFR2; settings: FGFR binding data
T2 construct: made in house; host or cells: E. coli derived from BL21, infected with T7 phage
T2 sequence (P21802 22-821): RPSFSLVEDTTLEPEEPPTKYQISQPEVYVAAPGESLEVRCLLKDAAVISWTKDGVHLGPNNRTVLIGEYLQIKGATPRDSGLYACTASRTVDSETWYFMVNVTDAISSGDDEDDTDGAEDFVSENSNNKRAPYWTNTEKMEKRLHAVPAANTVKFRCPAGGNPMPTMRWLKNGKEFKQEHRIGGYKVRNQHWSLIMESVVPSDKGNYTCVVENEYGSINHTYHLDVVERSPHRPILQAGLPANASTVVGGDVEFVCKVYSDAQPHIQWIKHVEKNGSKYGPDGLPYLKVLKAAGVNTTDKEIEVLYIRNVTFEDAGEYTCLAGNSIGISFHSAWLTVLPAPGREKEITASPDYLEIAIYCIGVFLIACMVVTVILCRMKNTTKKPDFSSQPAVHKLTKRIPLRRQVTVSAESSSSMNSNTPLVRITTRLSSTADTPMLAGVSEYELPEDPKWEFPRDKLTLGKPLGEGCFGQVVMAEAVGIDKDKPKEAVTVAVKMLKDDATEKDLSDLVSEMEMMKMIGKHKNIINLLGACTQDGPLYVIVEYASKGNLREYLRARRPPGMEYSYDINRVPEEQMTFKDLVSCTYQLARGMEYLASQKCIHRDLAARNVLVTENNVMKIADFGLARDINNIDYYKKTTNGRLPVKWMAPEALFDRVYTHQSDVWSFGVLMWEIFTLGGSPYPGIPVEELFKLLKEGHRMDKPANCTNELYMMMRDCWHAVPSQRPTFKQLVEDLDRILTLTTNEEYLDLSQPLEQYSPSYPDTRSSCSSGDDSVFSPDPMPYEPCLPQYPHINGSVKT
Outline: as §1

[1] = system: KG-1 (Acute Myeloid Leukemia), FGFR1OP2-FGFR1 fusion; experiment: Cancer cell viability assay (Cell Titer-Glo), KG-1; type: cell-based; settings: Homo sapiens, KG-1 cells, 72 hours
Source text: RT112/84, UM-UC-14, SNU-16 and KG-1 Cancer Cell Line Cell Viability Assays
To detect the change of intracellular ATP by Cell Titer-Glo@ and to evaluate the inhibitory effect of the compounds on cancer cell lines by determining the in vitro IC50 value of the compounds.
Cell Titer-Glo@ 2.0 Luminescent cell viability assay reagent was purchased from Promega (Madison, WI). RT112/84, SNU-16, and KG-1 cell lines were purchased from American Type Culture Collection (Manassas, VA). UM-UC-14 cell line was purchased from Sigma (St. Louis, MO). RT112/84, UM-UC-14, SNU-16, and KG-1 cells were cultured in RPMI1640 media supplemented with 10% fetal bovine serum. Cultures were maintained at 37° C. in a humidified atmosphere of 5% CO2 and 95% air.
Cell Viability Assay Procedure: Cells were plated in 96-well clear bottom/white plates (Corning #3903) at 10,000 cells/well in 100 μl of media, incubated overnight. The next day, test compound DMSO stock solutions were made at 10 mM and 2 μM final concentration. Compounds were then added to cells in a 9-dose, […] dilution series starting at 30 μM with an HP 300e Digital Dispenser (each dose was applied in triplicate). DMSO was backfilled to each well up to 301 nL total volume of test compound+DMSO, and a total of 301 nL DMSO was added to a control/no test compound well in triplicate. The cells in cell culture plates were incubated with the compounds at 37° C. and 5% CO2 for 72 hours. Then 50 μl of Cell Titer Glo 2.0 reagent was added to each well of the cell culture plates. The contents were covered from light and mixed on an orbital shaker at room temperature for 10 min. Luminescence was recorded by a Synergy H1 Microplate Reader (Biotek, Winooski, VT). Cells were assessed as a percentage of DMSO only treated control cells. Curves were plotted and IC50 values were calculated using the GraphPad Prism 8 program based on a sigmoidal dose-response equation (4 parameter).

[2] = system: RT112/84 (Bladder Cancer), FGFR3-TACC3 fusion; experiment: Cancer cell viability assay (Cell Titer-Glo), RT112/84; type: cell-based; settings: Homo sapiens, RT112/84 cells, 72 hours
Outline: (§2)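 Cells seeded at 10,000/well in RPMI1640 with 10% FBS, then exposed 72 h at 37° C. to a 9-point 10-fold dilution series from 30 μM, in triplicate. Viability read as ATP luminescence (CellTiter-Glo 2.0) as percent of DMSO control; IC50 from 4-parameter sigmoidal fit.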

[3] = system: UM-UC-14 (Bladder Cancer), FGFR3(S249C); experiment: Cancer cell viability assay (Cell Titer-Glo), UM-UC-14; type: cell-based; settings: UMUC14, UM-UC-14 cells, 72 hours
Outline: as §2

FGFR3 = target: T3, FGFR3 (Homo sapiens, UniProt P22607); experiment: Kinase binding assay (kinase-tagged T7 phage, affinity beads, qPCR readout), FGFR3; settings: FGFR binding data
T3 construct: made in house; host or cells: E. coli derived from BL21, infected with T7 phage
T3 sequence (P22607 23-806): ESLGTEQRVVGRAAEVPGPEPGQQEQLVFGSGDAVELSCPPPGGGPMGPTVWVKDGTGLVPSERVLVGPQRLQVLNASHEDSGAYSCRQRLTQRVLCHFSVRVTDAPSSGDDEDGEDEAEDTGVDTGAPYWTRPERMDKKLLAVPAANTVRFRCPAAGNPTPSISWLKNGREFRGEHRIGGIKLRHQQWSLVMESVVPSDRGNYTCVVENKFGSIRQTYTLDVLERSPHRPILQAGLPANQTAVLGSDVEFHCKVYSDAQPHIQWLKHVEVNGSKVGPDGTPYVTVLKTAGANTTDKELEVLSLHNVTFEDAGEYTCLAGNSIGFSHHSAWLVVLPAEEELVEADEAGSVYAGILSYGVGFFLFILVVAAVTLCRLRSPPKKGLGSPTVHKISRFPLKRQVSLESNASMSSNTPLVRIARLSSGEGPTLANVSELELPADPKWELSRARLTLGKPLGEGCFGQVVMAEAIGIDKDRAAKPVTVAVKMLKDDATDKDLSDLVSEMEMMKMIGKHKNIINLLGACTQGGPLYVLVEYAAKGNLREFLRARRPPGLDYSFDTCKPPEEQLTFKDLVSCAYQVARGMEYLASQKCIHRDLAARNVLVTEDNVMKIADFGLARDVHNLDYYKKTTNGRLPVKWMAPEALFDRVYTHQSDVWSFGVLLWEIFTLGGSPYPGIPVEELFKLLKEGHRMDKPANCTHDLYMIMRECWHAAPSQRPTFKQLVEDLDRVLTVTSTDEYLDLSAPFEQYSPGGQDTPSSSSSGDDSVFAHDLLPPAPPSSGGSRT
Outline: as §1

FGFR1 = target: T4, FGFR1 (Homo sapiens, UniProt P11362); experiment: Kinase binding assay (kinase-tagged T7 phage, affinity beads, qPCR readout), FGFR1; settings: FGFR binding data
T4 construct: made in house; host or cells: E. coli derived from BL21, infected with T7 phage
T4 sequence (P11362 22-822): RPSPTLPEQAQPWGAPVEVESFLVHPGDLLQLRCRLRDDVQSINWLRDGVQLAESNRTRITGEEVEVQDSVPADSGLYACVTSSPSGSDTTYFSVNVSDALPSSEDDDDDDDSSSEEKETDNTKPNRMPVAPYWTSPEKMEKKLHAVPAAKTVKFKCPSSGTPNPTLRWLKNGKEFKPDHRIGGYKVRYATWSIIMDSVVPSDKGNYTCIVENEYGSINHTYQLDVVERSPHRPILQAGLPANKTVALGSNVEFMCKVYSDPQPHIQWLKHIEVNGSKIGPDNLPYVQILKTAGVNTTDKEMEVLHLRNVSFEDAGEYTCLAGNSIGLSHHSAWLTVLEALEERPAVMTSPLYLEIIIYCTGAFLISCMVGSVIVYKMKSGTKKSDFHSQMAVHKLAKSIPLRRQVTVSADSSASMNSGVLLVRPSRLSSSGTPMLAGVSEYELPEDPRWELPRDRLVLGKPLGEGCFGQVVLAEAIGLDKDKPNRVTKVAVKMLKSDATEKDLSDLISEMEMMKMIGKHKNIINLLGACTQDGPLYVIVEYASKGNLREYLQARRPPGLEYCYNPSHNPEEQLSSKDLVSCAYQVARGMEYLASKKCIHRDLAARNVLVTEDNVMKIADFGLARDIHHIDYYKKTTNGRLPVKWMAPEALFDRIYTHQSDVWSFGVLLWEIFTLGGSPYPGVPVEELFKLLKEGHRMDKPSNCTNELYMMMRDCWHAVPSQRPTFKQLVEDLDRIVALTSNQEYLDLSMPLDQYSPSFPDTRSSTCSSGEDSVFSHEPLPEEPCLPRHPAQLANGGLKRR
Outline: as §1

[4] = system: SNU-16 (Gastric Carcinoma), FGFR2 amplification; experiment: Cancer cell viability assay (Cell Titer-Glo), SNU-16; type: cell-based; settings: Homo sapiens, SNU-16 cells, 72 hours, read-out: SNU16 FGFR2 (IC50 nM)
Outline: as §2

T1 sequence (P22607 23-806 V555M): as the sequence (P22607 23-806) above, with V533M counted along it

SMILES	Kd (FGFR3 (V555M))	Kd (FGFR2)	IC50 [1]	IC50 [2]	IC50 [3]	Kd (FGFR3)	Kd (FGFR1)	IC50 [4]
C=CC(=O)Nc1ccc2c(c1)c(C)cn2-c1nc(Nc2cnn(C)c2)ncc1F [Example 61, N-[1-[5-fluoro-2-[(1-methylpyrazol-4-yl)amino]pyrimidin-4-yl]-3-methyl-indol-5-yl]prop-2-enamide]	0.1 to 100 nM	0.1 to 100 nM	0.1 to 100 nM	0.1 to 100 nM	0.1 to 100 nM	0.1 to 100 nM	0.1 to 100 nM	0.1 to 100 nM
C=CC(=O)Nc1ccc2c(c1)c(C)cn2-c1nc(Nc2cc(C)nn2C)ncc1C [Example 64, N-[1-[2-[(2,5-dimethylpyrazol-3-yl)amino]-5-methyl-pyrimidin-4-yl]-3-methyl-indol-5-yl]prop-2-enamide]	0.1 to 100 nM	0.1 to 100 nM	0.1 to 100 nM	0.1 to 100 nM	0.1 to 100 nM	0.1 to 100 nM	0.1 to 100 nM	0.1 to 100 nM

Results, then the molecule that gave them:

Kd (FGFR3 (V555M))	Kd (FGFR2)	IC50 [1]	IC50 [2]	IC50 [3]	Kd (FGFR3)	Kd (FGFR1)	IC50 [4]	SMILES
0.1 to 100 nM	0.1 to 100 nM	0.1 to 100 nM	0.1 to 100 nM	0.1 to 100 nM	0.1 to 100 nM	0.1 to 100 nM	0.1 to 100 nM	C=CC(=O)Nc1ccc2c(c1)c(C)cn2-c1nc(Nc2ccc(N3CCOCC3)cc2)ncc1C [Example 44, N-[3-methyl-1-[5-methyl-2-(4-morpholinoanilino)pyrimidin-4-yl]indol-5-yl]prop-2-enamide]
0.1 to 100 nM	0.1 to 100 nM	0.1 to 100 nM	0.1 to 100 nM	0.1 to 100 nM	0.1 to 100 nM	0.1 to 100 nM	0.1 to 100 nM	C=CC(=O)Nc1ccc2c(c1)c(C)cn2-c1ccnc(Nc2ccc(N3CCOCC3)cc2)n1 [Example 54, N-[3-Methyl-1-[2-(4-morpholinoanilino)pyrimidin-4-yl]indol-5-yl]prop-2-enamide]
0.1 to 100 nM	0.1 to 100 nM	0.1 to 100 nM	0.1 to 100 nM	0.1 to 100 nM	0.1 to 100 nM	100 to 250 nM	0.1 to 100 nM	C=CC(=O)Nc1ccc2c(c1)c(C)cn2-c1nc(Nc2ccnn2C)ncc1C [Example 49, N-[3-methyl-1-[5-methyl-2-[(2-methylpyrazol-3-yl)amino]-pyrimidin-4-yl]indol-5-yl]prop-2-enamide]
